Here are results for one compound from patent publication US6579718B1, “Carbazolylvinyl dye protein stains” (Molecular Probes, Inc., priority 2000, dated 2003).

The subject of assay [1] is amino acid homo- and hetero-polymers. Put plainly: Dye staining of amino acid homo- and hetero-polymers copolymerized into polyacrylamide gel discs. The source says:
The specificity of protein detection of the present method can be compared to that of silver, CBB, SYPRO Orange dye and SYPRO Red dye staining for a variety of synthetic poly(amino acids) copolymerized into a polyacrylamide gel matrix. To do this, homopolymers of L-arginine, asparagine, histidine, lysine, aspartate, glutamate, alanine, glycine, isoleucine, leucine, methionine, serine, threonine, tryptophan, tyrosine and proline are copolymerized into 15% T, 2.6% C polyacrylamide gels at a concentration of […]. Except when indicated, 0.1% sodium dodecyl sulfate is included in the polyacrylamide solution as well. The amino acid heteropolymers, poly(glutamate, alanine, tyrosine), poly(glutamate, tyrosine), poly(lysine, tyrosine), poly(glutamate, lysine, tyrosine), and poly(arginine, tyrosine) are copolymerized into polyacrylamide gels in an identical manner as the homopolymers. Blank gels containing no polymer are prepared for reference. The co-polymerized gels are cut into discs using the large end of a 1000 microliter pipet tip (Sorenson Bioscience, Inc., West Salt. Lake City, Utah) and stained in Falcon 48 well flat bottom tissue culture plates (Becton-Dickinson, Franklin Lakes, N.J.) on an orbital shaker operating at 50 RPM. Gel discs are quantified on a Roche Lumi-Imager system (Indianapolis, Ind.) and classified into three groups based upon staining intensity (strong, moderate, or weak staining).

The test system of assay [2] is broad-range protein molecular weight markers. Nature of the assay: Staining of broad-range molecular weight protein standards in SDS-polyacrylamide gels (Example 22, FIG. 2, 3). Here is the method:
FIG. 2: Intensity profile comparison after staining broad-range protein molecular weight markers with SYPRO Orange dye in 7% acetic acid and phosohate-buffered saline. FIG. 2A.) Profile obtained with SYPRO Orange dye in 7% acetic acid. FIG. 2B.) Profile obtained with SYPRO Orange dye in 50 mM sodium phosphate, 150 mM sodium chloride, pH 7.0. Grey scale values of the fluorescence signals were inverted prior to obtaining the traces to facilitate evaluation of the peaks.
FIG. 3: Intensity profile comparison after staining broad-range protein molecular weight markers with Compound 9 in 7% acetic acid and phosphate-buffered saline. FIG. 3A.) Profile obtained with Compound 9 in 7% acetic acid. FIG. 3B.) Profile obtained with Compound 9 in 50 mM sodium phosphate, 150 mM sodium chloride, pH 7.0. Grey scale values of the fluorescence signals were inverted prior to obtaining the traces to facilitate evaluation of the peaks.
SDS-polyacrylamide gel electrophoresis is performed by standard methods utilizing 4% T, 2.6% C stacking gels, pH 6.8 and 15% T, 2.6% C separating gels, pH 8.8. % T is the total monomer concentration expressed in grams per 100 mL and % C is the percentage crosslinker. A staining solution of Compound 9 is prepared by diluting a stock solution that 5 is […] dye in DMSO in either 7.5% acetic acid or 50 mM Na2HPO4, 150 mM NaCl, pH 7.0 with vigorous mixing. Alternatively, a wide range of buffers are compatible with staining, including but not limited to formate, pH 4.0; citrate, pH 4.5; acetate, pH 5.0; MES, pH 6.0;
imidazole, pH 7.0; HEPES, pH 7.5; Tris acetate, pH 8.0; Tris-HCl, pH 8.5; Tris borate, 20 mM EDTA, pH 9.0; and bicarbonate, pH 10.0. Buffers should be prepared as 50-100 mM 10 solutions containing about 150 mM NaCl. Approximately 50-75 mL of staining solution is used for a typical mini-gel (5 cm×9 cm×1 mm). The gel is placed into the staining solution and the container is covered with aluminum foil to protect the dye from bright light. The gel is gently agitated for at least 30 minutes at room temperature using an orbital shaker (50:RPM). After staining, the gel is briefly dipped in water and visualized on a UV light box. […] As little as 1 ng of protein may be visualized when the fluorescent image is recorded by photography using a cellophane 490-nm long pass filter. […] In the latter buffer, protein bands are barely detectable above background fluorescence with these latter dyes.

Assay [3] relates to whole cell lysates of rat fibroblasts. Nature of the assay: Staining of two-dimensional gels of rat fibroblast lysates (Example 23). Particulars: 2-D gel, photography with 490-nm long pass filter. Here is the method: The non-fixative nature of the staining solution is illustrated by evaluating passive elution of proteins from a polyacrylamide matrix. Passive diffuision of proteins is evaluated by staining two-dimensional gels in 7% acetic acid or in phosphate-buffered saline using Compound 9. Whole cell lysates of rat fibroblasts are extracted according to standard procedures for mammalian cells. Approximately 50 μg total protein is applied per gel and large format two dimensional gel electrophoresis is performed by standard methods. Compound 9 staining solution is prepared by diluting the stock reagent to 2 μM in either 7.5% acetic acid or 50 mM Na2HPO4, 150 mM NaCl, pH 7.0 while vigorously mixing. Approximately 500-750 mL of Compound 9 staining solution is used for a typical large format 2-D gel (20 cm×20 cm×1 mm). The gel is placed into the staining solution and the container is covered with aluminum foil to protect the dye from bright light. The gel is gently agitated for at least 30 minutes at room temperature using an orbital shaker (50 RPM). After staining the gel is briefly dipped in water and visualized on a UV light box. […] As little as 1 ng of protein can be visualized when the fluorescent image is recorded by photography using a cellophane 490-nm long pass filter. […]

The next assay has as its system proteins. Put plainly: Prestaining of proteins prior to electrophoresis (Example 31). Particulars: prestaining before electrophoresis. Here is the method:
The proteins of interest are diluted to appropriate concentrations in electrophoresis sample buffer. The samples are then heated to 90-95° C. for 4-5 minutes and allowed to cool to room temperature. Compound 9 is added to the protein solutions to a final concentration of 10 mM, and the samples are loaded onto a 12% polyacrylamide gel, or other appropriate percentage gel. The gel is electrophoresed under standard conditions and visualized directly using ultraviolet illumination. The sensitivity of this method is somewhat less than the sensitivity possible using the methods in Example 22 (post staining the gel after electrophoresis) or in Example 30 (dye in running buffer).

Where [4] appears, read: gel discs with 0.1% SDS, no asterisk = moderate.

The structures appear in SMILES notation.

`CCn1c2ccccc2c2cc(/C=C/c3cc[n+](CCCCS(=O)(=O)[O-])c4ccccc34)ccc21` [Compound 9]: in assay [1] (setting [4]), the “Staining intensity, Arg homopolymer” value is given as “Arg*”; the “Staining intensity, Arg:Tyr heteropolymer” value is “Arg:Tyr*”; the “Staining intensity, Glu:Ala:Tyr heteropolymer” value is “Glu:Ala:Tyr*”; the “Staining intensity, Glu:Lys:Tyr heteropolymer” value was “Glu:Lys:Tyr*”. Further, in assay [1] (setting [4]), the “Staining intensity, Glu:Tyr heteropolymer” value is on record as “Glu:Tyr*”; the “Staining intensity, Gly homopolymer” value was “Gly”; the “Staining intensity, His homopolymer” value is reported as “His*”; the “Staining intensity, Ile homopolymer” value was “Ile”. In assay [1] (setting [4]), the “Staining intensity, Lys homopolymer” value is given as “Lys*”; the “Staining intensity, Lys:Tyr heteropolymer” value is given as “Lys:Tyr*”; the “Staining intensity, Tyr homopolymer” value is recorded as “Tyr*”. For the same compound, the “Change of amino acid polymer staining in phosphate-buffered saline” value in assay [1] (phosphate-buffered saline versus 7% acetic acid) is “not substantially reduced”. The “Brightness of protein band staining” value in assay [2] (7% acetic acid) is recorded as “as brightly as SYPRO Orange dye”. Moreover, the “Amount of protein that may be visualized (detection sensitivity)” value in assay [2] (SDS-polyacrylamide gel, photography with 490-nm long pass filter) stood at 1 ng. The “Brightness of protein staining compared with SYPRO Orange dye” value in assay [2] (phosphate-buffered saline) was “much more brightly”. Moreover, the “Appearance of stained proteins on UV light box” value in assay [2] (regardless of the buffer) was “bright orange bands”. Also, the “Amount of protein that can be visualized (detection sensitivity)” value in assay [3] came to 1 ng. In the assay on proteins, the “Sensitivity compared with methods of Example 22 or Example 30” value is listed as “somewhat less”.
